Drawing on US9783536B2, “Nitrogen-containing heterocyclic compound or salt thereof” (FUJIFILM Corporation, priority 2013, dated 2017), this text covers IC50 for 31 compounds.

One experiment deals with CHO-K1 cells. In words: CHO cell toxicity test. In kind it is cell-based, Chinese hamster. The settings on record: Cricetulus griseus; CHO-K1 cells, 24 hours culture with compound, CellTiter-Glo; read-out: IC50 value (concentration at which the number of viable cells was suppressed to 50% or less). In a few lines:
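CHO-K1 cells were cultured 24 h, then exposed 24 h to compound at final 25.00 to 0.20 μmol/L in F-12 with 2% FCS. Viability read by CellTiter-Glo luminescence; inhibition % = 100 − (treated/untreated signal)×100.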

The target in the next experiment is T1, human PI3Kα protein (Homo sapiens, UniProt P42336).
T1 construct: purchased Carna Biosciences, Inc; host or cells: baculovirus expression system
T1 sequence (P42336 whole entry): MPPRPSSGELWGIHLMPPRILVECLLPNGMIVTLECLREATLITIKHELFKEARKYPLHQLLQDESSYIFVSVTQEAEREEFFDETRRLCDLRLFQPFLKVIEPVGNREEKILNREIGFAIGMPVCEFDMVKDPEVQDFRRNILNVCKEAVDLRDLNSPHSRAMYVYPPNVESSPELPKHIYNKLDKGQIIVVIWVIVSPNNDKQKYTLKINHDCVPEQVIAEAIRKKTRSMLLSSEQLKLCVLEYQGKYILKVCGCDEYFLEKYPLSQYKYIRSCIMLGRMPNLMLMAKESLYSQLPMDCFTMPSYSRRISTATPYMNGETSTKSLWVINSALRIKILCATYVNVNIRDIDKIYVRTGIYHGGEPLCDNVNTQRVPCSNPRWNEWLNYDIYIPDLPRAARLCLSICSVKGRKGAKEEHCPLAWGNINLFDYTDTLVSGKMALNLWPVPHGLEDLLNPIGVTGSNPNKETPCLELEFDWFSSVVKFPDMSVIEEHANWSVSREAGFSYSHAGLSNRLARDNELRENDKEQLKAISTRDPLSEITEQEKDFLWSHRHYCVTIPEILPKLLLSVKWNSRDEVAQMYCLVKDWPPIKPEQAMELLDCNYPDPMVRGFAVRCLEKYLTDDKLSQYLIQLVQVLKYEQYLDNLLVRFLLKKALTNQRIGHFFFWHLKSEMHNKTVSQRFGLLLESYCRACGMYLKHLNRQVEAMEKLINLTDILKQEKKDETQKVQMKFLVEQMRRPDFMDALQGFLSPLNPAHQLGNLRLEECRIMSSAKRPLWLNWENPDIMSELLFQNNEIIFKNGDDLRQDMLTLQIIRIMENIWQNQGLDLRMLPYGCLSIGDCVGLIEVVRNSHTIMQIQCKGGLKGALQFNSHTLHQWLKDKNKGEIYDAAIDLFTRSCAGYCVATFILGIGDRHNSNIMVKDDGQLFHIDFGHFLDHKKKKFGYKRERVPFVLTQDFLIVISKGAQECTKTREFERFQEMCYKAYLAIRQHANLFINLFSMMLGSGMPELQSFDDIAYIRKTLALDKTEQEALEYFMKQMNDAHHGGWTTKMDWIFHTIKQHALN
T1 sequence (P27986 whole entry partner): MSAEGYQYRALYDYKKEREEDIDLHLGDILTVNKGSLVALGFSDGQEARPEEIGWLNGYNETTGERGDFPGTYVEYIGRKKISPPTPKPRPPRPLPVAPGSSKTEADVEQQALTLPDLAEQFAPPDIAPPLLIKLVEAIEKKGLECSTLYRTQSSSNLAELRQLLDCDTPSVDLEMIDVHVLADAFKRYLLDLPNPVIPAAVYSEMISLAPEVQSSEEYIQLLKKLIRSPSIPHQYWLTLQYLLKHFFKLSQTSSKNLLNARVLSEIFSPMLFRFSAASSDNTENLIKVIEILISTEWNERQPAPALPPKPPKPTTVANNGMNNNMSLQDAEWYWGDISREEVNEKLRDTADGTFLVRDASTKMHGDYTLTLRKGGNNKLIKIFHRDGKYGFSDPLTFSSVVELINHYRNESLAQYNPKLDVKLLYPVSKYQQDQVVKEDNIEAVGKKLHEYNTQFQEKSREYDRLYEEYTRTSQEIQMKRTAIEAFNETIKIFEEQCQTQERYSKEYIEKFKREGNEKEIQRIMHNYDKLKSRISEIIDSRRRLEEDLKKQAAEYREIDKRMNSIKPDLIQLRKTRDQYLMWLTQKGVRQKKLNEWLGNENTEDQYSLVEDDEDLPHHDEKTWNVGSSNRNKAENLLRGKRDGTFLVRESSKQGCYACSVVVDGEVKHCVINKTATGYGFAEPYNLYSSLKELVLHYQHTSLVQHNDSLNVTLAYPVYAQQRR
In words: PI3Kα enzyme assay (ADP-Glo). In kind it is biochemical. To be noted: read-out: PI3Kα enzyme inhibitory activity. The procedure, abridged:
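Biotinylated human PI3Kα (baculovirus-expressed, 4.5 nmol/L) pre-incubated 15 min with compound in Tris-HCl pH 7.5, MgCl2, BSA; reaction 60 min at 25° C with 50 μmol/L PIP2 and 100 μmol/L ATP final. ADP quantified by ADP-Glo luminescence; IC50 calculated.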
In general terms: ADP-Glo first removes unused ATP, then detects ADP through luciferase.

For experiment [1], the target named is T2, GST fusion human ERK2 protein (Homo sapiens, UniProt P28482).
T2 construct: purchased Carna Biosciences, Inc; host or cells: E. coli expression system
T2 sequence (P28482 whole entry, the tested form may be a part): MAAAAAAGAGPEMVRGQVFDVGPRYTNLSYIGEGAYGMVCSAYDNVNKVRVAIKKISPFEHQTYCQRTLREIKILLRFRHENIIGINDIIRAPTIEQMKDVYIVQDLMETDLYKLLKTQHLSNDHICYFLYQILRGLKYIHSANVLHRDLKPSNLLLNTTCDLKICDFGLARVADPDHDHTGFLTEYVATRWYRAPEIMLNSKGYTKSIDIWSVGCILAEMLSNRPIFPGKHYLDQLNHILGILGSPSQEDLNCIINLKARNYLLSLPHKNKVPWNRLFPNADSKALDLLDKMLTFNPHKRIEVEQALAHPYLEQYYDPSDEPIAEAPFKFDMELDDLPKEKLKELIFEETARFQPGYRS
In words: ERK2 enzyme assay (1). In kind it is biochemical. The settings on record: read-out: ERK2 enzyme inhibitory activity (1). The procedure, abridged:
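Enzyme (2.5 nmol/L, E. coli-expressed) preincubated with compound 15 min at room temperature in HEPES/MgCl2/DTT/Brij35 buffer, pH 7.5; reaction with 4.25 μmol/L FL-Peptide 8 and 43.1 μmol/L ATP for 120 min at 25 °C. Phosphorylated peptide fraction quantified by mobility-shift separation after EDTA stop; IC50 calculated.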

For experiment [2], the target named is T2, GST fusion human ERK2 protein. In words: ERK2 enzyme assay (2). The settings on record: read-out: ERK2 enzyme inhibitory activity (2). In kind it is biochemical. In a few lines:
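GST-tagged human ERK2 expressed in E. coli (1.25 nmol/L) was preincubated with compound for 15 min at room temperature in pH 7.5 Hepes buffer with MgCl2, DTT and Brij35. Reaction with FL-Peptide 8 (final 4.25 μmol/L) and ATP (final 1 mmol/L) ran 120 min at 25 °C; EDTA stopped it, and phosphorylated peptide was quantified by mobility-shift separation to derive IC50.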

[3] abbreviates: 4.5 nmol/L PI3Kα, PIP2 50 μmol/L, ATP 100 μmol/L.
The mark [4] stands for this setting: 2.5 nmol/L ERK2, ATP 43.1 μmol/L.

Read-outs that look alike come from different tables or passages of the source. Where only a bound is given, the exact number is not on record here.

For `c1nnc(Nc2ccc3ncc(-c4cnn(CCCN5CCOCC5)c4)cc3n2)s1` [Example 0001, N-(7-(1-(3-morpholinopropyl)-1H-pyrazol-4-yl)-1,5-naphthyridin-2-yl)-1,3,4-thiadiazole-2-amine], the IC50 is not below 25 µM in the experiment with CHO-K1 cells, less than 1 µM on human PI3Kα protein (setting [3]) and less than 1 µM in experiment [1] (setting [4]).
As for `c1nc2ccc(Nc3cc(C4CCC4)cnn3)nc2cc1-c1cnn(CCCN2CCCC2)c1` [Example 0015, N-(5-cyclobutylpyridazin-3-yl)-7-(1-(3-(pyrrolidin-1-yl)propyl)-1H-pyrazol-4-yl)-1,5-naphthyridine-2-amineformate], the IC50 in the experiment on CHO-K1 cells is not below 25 µM; on human PI3Kα protein (setting [3]), less than 1 µM; in experiment [1] (setting [4]) it was less than 1 µM; in experiment [2] (1.25 nmol/L ERK2, ATP 1 mmol/L) it was less than 1 µM.
Turning to `COCc1cnnc(Nc2ccc3ncc(-c4cnn(CCCN5CCCC5)c4)cc3n2)c1` [Example 0018], the IC50 with CHO-K1 cells is not below 25 µM; at human PI3Kα protein (setting [3]) it was less than 1 µM; in experiment [1] (setting [4]), less than 1 µM; in experiment [2] (1.25 nmol/L ERK2, ATP 1 mmol/L), less than 1 µM.
`c1nc2ccc(Nc3cc(C4CCOC4)cnn3)nc2cc1-c1cnn(CCCN2CCCC2)c1` (stereo not shown) [Example 0019, 7-(1-(3-(Pyrrolidin-1-yl)propyl)-1H-pyrazol-4-yl)-N-(5-(tetrahydrofuran-3-yl)pyridazin-3-yl)-1,5-naphthyridine-2-amine]: the IC50 is not below 25 µM in the experiment on CHO-K1 cells, less than 1 µM on human PI3Kα protein (setting [3]) and less than 1 µM in experiment [1] (setting [4]).
For the compound `Cc1nnc(Nc2ccc3ncc(-c4cnn(C)c4)cc3n2)s1` [Example 0027], the IC50 is not below 25 µM in the experiment with CHO-K1 cells; less than 1 µM at human PI3Kα protein (setting [3]); less than 1 µM in experiment [1] (setting [4]); less than 1 µM in experiment [2] (1.25 nmol/L ERK2, ATP 1 mmol/L).
Take `Cn1cc(-c2cnc3ccc(Nc4cccnn4)nc3c2)cn1` [Example 0037]: the IC50 is not below 25 µM in the experiment with CHO-K1 cells, 1 to 10 µM at human PI3Kα protein (setting [3]) and less than 1 µM in experiment [1] (setting [4]).
On to `OCCOc1cncc(Nc2cnc3ccc(Nc4nnc(C5CCCC5)s4)nc3c2)c1` [Example 0097], for which the values for the IC50 (with CHO-K1 cells; at human PI3Kα protein (setting [3]); in experiment [1] (setting [4])) were not below 25 µM, less than 1 µM and less than 1 µM, respectively.
In the case of `CCCc1nn(C)cc1-c1cnc2ccc(Nc3nnc(C(C)C)s3)nc2c1` [Example 0122], the IC50 was not below 25 µM in the experiment with CHO-K1 cells; less than 1 µM on human PI3Kα protein (setting [3]); less than 1 µM in experiment [1] (setting [4]); less than 1 µM in experiment [2] (1.25 nmol/L ERK2, ATP 1 mmol/L).
Consider `c1csc(Nc2ccc3ncc(-c4cnn(CCCN5CCCC5)c4)cc3n2)n1` [Example 0128], for which the IC50 in the experiment with CHO-K1 cells was not below 25 µM; at human PI3Kα protein (setting [3]) it was less than 1 µM; in experiment [1] (setting [4]) it was less than 1 µM.
Consider `O=S(=O)(Nc1nnc(Nc2ccc3ncc(-c4cnn(CCN5CCOCC5)c4)cc3n2)s1)c1ccccc1` [Example 0179, N-(5-((7-(1-(2-morpholinoethyl)-1H-pyrazol-4-yl)-1,5-naphthyridin-2-yl)amino)-1,3,4-thiadiazol-2-yl)benzene sulfonamide], for which the results for the IC50 (with CHO-K1 cells; at human PI3Kα protein (setting [3]); in experiment [1] (setting [4])) were not below 25 µM, less than 1 µM and less than 1 µM, respectively.
Take `c1n[nH]cc1Nc1cnc2ccc(Nc3nnc(C4CCC4)s3)nc2c1` [Example 0222, N^2-(5-cyclobutyl-1,3,4-thiadiazol-2-yl)-N^7-(1H-pyrazol-4-yl)-1,5-naphthyridine-2,7-diamine]: the IC50 is not below 25 µM in the experiment on CHO-K1 cells, less than 1 µM on human PI3Kα protein and less than 1 µM in experiment [1] (ERK2 enzyme assay (1)).
As for `Cn1cc(-c2cnc3ccc(Nc4nnc([C@@H]5CCCO5)s4)nc3c2)cn1` [Example 0231], the values for the IC50 (in the experiment with CHO-K1 cells; at human PI3Kα protein; in experiment [1] (ERK2 enzyme assay (1))) were not below 25 µM, less than 1 µM and less than 1 µM, respectively.
Take `Cn1cc(-c2cnc3ccc(Nc4nnc([C@H]5CCCO5)s4)nc3c2)cn1` [Example 0232]: the figures for the IC50 (with CHO-K1 cells; at human PI3Kα protein; in experiment [1] (ERK2 enzyme assay (1))) were not below 25 µM, less than 1 µM and less than 1 µM, respectively.
Consider `c1nc2ccc(Nc3nnc([C@@H]4CCCO4)s3)nc2cc1-c1cnn(CCCN2CCCC2)c1` [Example 0233], for which the figures for the IC50 (with CHO-K1 cells; on human PI3Kα protein; in experiment [1] (ERK2 enzyme assay (1))) were not below 25 µM, less than 1 µM and less than 1 µM, respectively.
For `c1nc2ccc(Nc3nnc([C@H]4CCCO4)s3)nc2cc1-c1cnn(CCCN2CCCC2)c1` [Example 0237], the figures for the IC50 (in the experiment with CHO-K1 cells; at human PI3Kα protein; in experiment [1] (ERK2 enzyme assay (1))) were not below 25 µM, less than 1 µM and less than 1 µM, respectively.
Take `c1nc2ccc(Nc3nnc(C4CCOC4)s3)nc2cc1-c1cnn(CCCN2CCCC2)c1` (stereo not shown) [Example 0238]: the IC50 with CHO-K1 cells is not below 25 µM; at human PI3Kα protein it was less than 1 µM; in experiment [1] (ERK2 enzyme assay (1)) it was less than 1 µM.
With `c1nc2ccc(Nc3nnc(C4CCOCC4)s3)nc2cc1-c1cnn(CCCN2CCCC2)c1` [Example 0245], the IC50 is not below 25 µM with CHO-K1 cells, less than 1 µM at human PI3Kα protein and less than 1 µM in experiment [1] (ERK2 enzyme assay (1)).
`c1nc2ccc(Nc3cc(C4CC4)cnn3)nc2cc1-c1cnn(CCCN2CCOCC2)c1` [Example 0298, N-(5-cyclopropylpyridazin-3-yl)-7-(1-(3-morpholinopropyl)-1H-pyrazol-4-yl)-1,5-naphthyridine-2-amine]: the results for the IC50 (in the experiment on CHO-K1 cells; on human PI3Kα protein; in experiment [1] (ERK2 enzyme assay (1))) were not below 25 µM, less than 1 µM and less than 1 µM, respectively.
`CN(C)CCCn1cc(-c2cnc3ccc(Nc4nncs4)nc3c2)cn1` [Example 0301]: the IC50 with CHO-K1 cells was not below 25 µM; at human PI3Kα protein, less than 1 µM; in experiment [1] (ERK2 enzyme assay (1)), less than 1 µM.
Turning to `Cc1nnc(Nc2ccc3ncc(-c4cnn(CCCN(C)C)c4)cc3n2)s1` [Example 0302], the IC50 with CHO-K1 cells is not below 25 µM; on human PI3Kα protein it was less than 1 µM; in experiment [1] (ERK2 enzyme assay (1)), less than 1 µM.
On to `c1nc2ccc(Nc3nnc(C4CCCO4)s3)nc2cc1-c1cnn(CCCN2CCCC2)c1` (stereo not shown) [Example 0325, N-(7-(1-(3-(pyrrolidin-1-yl)propyl)-1H-pyrazol-4-yl)-1,5-naphthyridin-2-yl)-5-(tetrahydrofuran-2-yl)-1,3,4-thiadiazole-2-amine], for which the values for the IC50 (with CHO-K1 cells; on human PI3Kα protein; in experiment [1] (ERK2 enzyme assay (1))) were not below 25 µM, less than 1 µM and less than 1 µM, respectively.
Take `c1nc2ccc(Nc3nnc(C4CC4)s3)nc2cc1-c1cnn(CCCN2CCCC2)c1` [Example 0362]: the results for the IC50 (with CHO-K1 cells; on human PI3Kα protein; in experiment [1] (ERK2 enzyme assay (1))) were not below 25 µM, less than 1 µM and less than 1 µM, respectively.
For the compound `CCc1nnc(Nc2ccc3ncc(-c4cnn(CCCN5CCCC5)c4)cc3n2)s1` [Example 0363], the results for the IC50 (with CHO-K1 cells; at human PI3Kα protein; in experiment [1] (ERK2 enzyme assay (1))) were not below 25 µM, less than 1 µM and less than 1 µM, respectively.
Consider `CC(C)c1cnnc(Nc2ccc3ncc(-c4cnn(CCCN5CCCCC5)c4)cc3n2)c1` [Example 0373, N-(5-isopropylpyridazin-3-yl)-7-(1-(3-(piperidin-1-yl)propyl)-1H-pyrazol-4-yl)-1,5-naphthyridine-2-amine], for which the results for the IC50 (with CHO-K1 cells; on human PI3Kα protein; in experiment [1] (ERK2 enzyme assay (1))) were not below 25 µM, less than 1 µM and less than 1 µM, respectively.
As to `CCN(CC)CCCn1cc(-c2cnc3ccc(Nc4cc(C(C)C)cnn4)nc3c2)cn1` [Example 0374, 7-(1-(3-(Diethylamino)propyl)-1H-pyrazol-4-yl)-N-(5-isopropylpyridazin-3-yl)-1,5-naphthyridine-2-amine], the IC50 with CHO-K1 cells was not below 25 µM; at human PI3Kα protein, less than 1 µM; in experiment [1] (ERK2 enzyme assay (1)), less than 1 µM.
On to `CCCc1nn(CCCN2CCOCC2)cc1-c1cnc2ccc(Nc3cc(C(C)C)cnn3)nc2c1` [Example 0390, N-(5-isopropylpyridazin-3-yl)-7-(1-(3-morpholinopropyl)-3-propyl-1H-pyrazol-4-yl)-1,5-naphthyridine-2-amine], for which the IC50 in the experiment on CHO-K1 cells is not below 25 µM; at human PI3Kα protein it was less than 1 µM; in experiment [1] (ERK2 enzyme assay (1)), less than 1 µM.
On to `CC(C)c1cnnc(Nc2ccc3ncc(-c4cnn(CCOC5CCOCC5)c4)cc3n2)c1` [Example 0395], for which the IC50 in the experiment with CHO-K1 cells was not below 25 µM; at human PI3Kα protein it was less than 1 µM; in experiment [1] (ERK2 enzyme assay (1)), less than 1 µM.
As for `CC(C)c1cnnc(Nc2ccc3ncc(-c4cnn(CCC(O)C(F)(F)F)c4)cc3n2)c1` (stereo not shown) [Example 0400], the IC50 in the experiment on CHO-K1 cells is not below 25 µM; on human PI3Kα protein, less than 1 µM; in experiment [1] (ERK2 enzyme assay (1)) it was less than 1 µM.
Take `CC(C)(CO)c1cnnc(Nc2ccc3ncc(-c4cnn(CCCN5CCCC5)c4)cc3n2)c1` [Example 0405, 2-methyl-2-(6-((7-(1-(3-(pyrrolidin-1-yl)propyl)-1H-pyrazol-4-yl)-1,5-naphthyridin-2-yl)amino)pyridazin-4-yl)propan-1-ol]: the results for the IC50 (in the experiment with CHO-K1 cells; on human PI3Kα protein; in experiment [1] (ERK2 enzyme assay (1))) were not below 25 µM, less than 1 µM and less than 1 µM, respectively.
Regarding `CC(C)c1cnnc(Nc2ccc3ncc(-c4ccncc4)cc3n2)c1` [Example 0406], the results for the IC50 (with CHO-K1 cells; at human PI3Kα protein; in experiment [1] (ERK2 enzyme assay (1))) were not below 25 µM, less than 1 µM and less than 1 µM, respectively.
Regarding `CCCc1cnnc(Nc2ccc3ncc(-c4cn(C)nc4C)cc3n2)c1` [Example 0919], the IC50 in the experiment on CHO-K1 cells was not below 25 µM; on human PI3Kα protein it was less than 1 µM; in experiment [2], less than 1 µM.
